Results published in patent US20120220039A1, “METHOD AND SYSTEM FOR DETECTING RESIDUAL POISON IN HUMAN BODY” (THE HONG KONG UNIVERSITY OF SCIENCE AND TECHNOLOGY, priority 2009, published 2012).

Test: Drug analysis of abuser in different hair segments by HPLC-Chip-MS/MS
Format: in vivo, human
From the text: Parent drug and its metabolites normally appear in hair after 5-7 day once administered. Hair normally grows at 0.75-1 cm/month. Drug taking habit or history can be reflected by analysis in different hair segments.
Hair specimens were collected and cut into different lengths. With the application of different conditions in Examples 1-8, drug distribution in different hair segments was illustrated (FIGS. 29 and 30).

[1] = Hair segment sample no. 1, hair length 0-4 cm, time 0-3 month
[2] = Hair segment sample no. 2, hair length 4-8 cm, time 3-6 month
[3] = Hair segment sample no. 3, hair length 8-12 cm, time 6-9 month
[4] = Hair segment sample no. 4, hair length 12-16 cm, time 9-12 month
[5] = Hair segment sample no. 5, hair length 16-20 cm, time 12-15 month
[6] = Hair segment sample no. 6, hair length 20-24 cm, time 15-18 month
[7] = Hair segment sample no. 7, hair length 24-28 cm, time 18-21 month
[8] = Hair segment sample no. 8, hair length 28-32 cm, time 21-24 month

Compound | Concentration in hair segment [1] [pg/mg] | Concentration in hair segment [2] [pg/mg] | Concentration in hair segment [3] [pg/mg] | Concentration in hair segment [4] [pg/mg] | Concentration in hair segment [5] [pg/mg] | Concentration in hair segment [6] [pg/mg] | Concentration in hair segment [7] [pg/mg] | Concentration in hair segment [8] [pg/mg]
CN[C@@H](C)Cc1ccccc1 [Methamphetamine] | 117.6 | 263.6 | 198.2 | 201.1 | 107.3 | 920 | 156.3 | 273.5
Methadone | 18.7 | 18.3 | 18.4 | 18.3 | 18.3 | 18.3 | 18.3 | 18.4
